In brackets after ≈: the same amount, converted by molar mass. Read-outs that look alike come from different tables or passages of the source.
Legend:
Type in all cases: cell-based
[1] = test system: Klebsiella pneumoniae: Ciprofloxacin-resistant isolate, ESBL, clinical isolate (KP-3700); test: MIC determination (CLSI), KP-3700
Description: (§1) The in vitro antibacterial activity of compounds described in the Examples was evaluated by minimum inhibitory concentration (MIC) testing according to Clinical and Laboratory Standards Institute (CLSI, formerly NCCLS) guidelines. See: Clinical and Laboratory Standards Institute. Methods for Dilution Antimicrobial Susceptibility Tests for Bacteria that Grow Aerobically; Approved Standard-Seventh Edition. CLSI document M7-A7 [ISBN 1-56238-587-9]. Clinical and Laboratory Standards Institute, 940 West Valley Road, Suite 1400, Wayne, Pa. 19087-1898 USA, 2006; also Clinical and Laboratory Standards Institute. Performance Standards for Antimicrobial Susceptibility Testing; Eighteenth Informational Supplement. CLSI document M100-S18 [ISBN1-56238-653-0]. Clinical and Laboratory Standards Institute.
(§2) The following bacterial strains were used in these MIC determinations:
4) Klebsiella pneumoniae: Ciprofloxacin-resistant isolate, expresses extended-spectrum beta-lactamases (ESBL), clinical isolate, labeled as KP-3700 in Tables 1, 2, and 3.

[2] = test system: Pseudomonas aeruginosa UI-18: Wild-type (PA-7); test: MIC determination (CLSI), PA-7; details: for MIC: Pseudomonas aeruginosa; for PA-7 MIC: Pseudomonas aeruginosa UI-18 wild-type PA-7
Description: as §1, §2
1) Pseudomonas aeruginosa UI-18: Wild-type, labeled as PA-7 in Tables 1, 2 and 3;

[3] = test system: Escherichia coli EC-1: VOGEL, mouse virulent; test: MIC determination (CLSI), EC-1; details: for MIC: Escherichia coli; for EC-1 MIC: Escherichia coli EC-1 VOGEL, mouse virulent
Description: as §1, §2
3) Escherichia coli EC-1: VOGEL, mouse virulent labeled as EC-1 in Tables 1, 2 and 3;

[4] = test system: Acinetobacter baumanii/haemolyticus: Multidrug-resistant clinical isolate (AB-3167); test: MIC determination (CLSI), AB-3167; details: for MIC: Acinetobacter baumannii; for AB-3167 MIC: Acinetobacter baumanii/haemolyticus multidrug-resistant clinical isolate AB-3167
Description: as §1, §2
2) Acinetobacter baumanii/haemolyticus: Multidrug-resistant clinical isolate labeled as AB-3167 in Tables 1, 2 and 3;

[5] = Table 1, MIC, read-out: PA-7 (MIC)
[6] = Table 1, MIC, read-out: AB-3167 (MIC)

SMILES | KP-3700 MIC [1] | MIC [2, 5] [µg/mL] | MIC ([3]; read-out: EC-1: (MIC)) [µg/mL] | MIC [4, 6] [µg/mL] | MIC ([2]; Table 3, read-out: PA-7 MIC) [µg/mL] | MIC ([3]; read-out: EC-1 MIC) [µg/mL] | MIC ([4]; Table 3, read-out: AB-3167 MIC) [µg/mL] | PA-7 MIC [2] [µg/mL] | EC-1 MIC [3] | AB-3167 MIC [4] | KP-3700 MIC ([1]; Klebsiella pneumoniae ciprofloxacin-resistant ESBL clinical isolate KP-3700) [µg/mL]
C[C@@](CCc1ccc(-c2ccccc2)cc1)(C(=O)NO)S(C)(=O)=O [Example 7, (2R)-4-Biphenyl-4-yl-N-hydroxy-2-methyl-2-(methylsulfonyl)butanamide] | 2 µg/mL | 0.5 (≈ 1.44 µM) | 0.5 (≈ 1.44 µM) | 16 (≈ 46.1 µM) | – | – | – | – | – | – | –
CC(CCc1ccc(OCc2c(F)cccc2Cl)cc1)(C(=O)NO)S(C)(=O)=O (centres unmarked) [Example 276, 4-{4-[(2-chloro-6-fluorobenzyl)oxy]phenyl}-N-hydroxy-2-methyl-2-(methylsulfonyl)butanamide] | 16 µg/mL | – | – | – | 4 (≈ 9.3 µM) | 4 (≈ 9.3 µM) | 32 (≈ 74.4 µM) | – | – | – | –
CC(CCc1ccc(OCc2ccc(C#N)cc2)cc1)(C(=O)NO)S(C)(=O)=O (centres unmarked) [Example 233, 4-{4-[(4-cyanobenzyl)oxy]phenyl}-N-hydroxy-2-methyl-2-(methylsulfonyl)butanamide] | 16 µg/mL | – | – | – | 4 (≈ 9.94 µM) | 4 (≈ 9.94 µM) | ≥ 64 | – | – | – | –
CC(CCc1ccc(OCCCC2CCCCC2)cc1)(C(=O)NO)S(C)(=O)=O (centres unmarked) [Example 315, 4-[4-(3-cyclohexylpropoxy)phenyl]-N-hydroxy-2-methyl-2-(methylsulfonyl)butanamide] | 16 µg/mL | – | – | – | 32 (≈ 77.8 µM) | 4 (≈ 9.72 µM) | 2 (≈ 4.86 µM) | – | – | – | –
CC(CCc1ccc(-c2cccnc2)cc1)(C(=O)NO)S(C)(=O)=O (racemic) [Example 61] | ≧64 mg/L | – | – | – | – | – | – | 16 | ≧64 mg/L | ≧64 mg/L | –
CCCCCCOc1ccc(CCC(C)(C(=O)NO)S(C)(=O)=O)cc1 (centres unmarked) [Example 252, 4-[4-(hexyloxy)phenyl]-N-hydroxy-2-methyl-2-(methylsulfonyl)butanamide] | 32 µg/mL | – | – | – | 16 (≈ 43.1 µM) | 8 (≈ 21.5 µM) | 4 (≈ 10.8 µM) | – | – | – | –
CC(CCc1ccc(-c2ccc(C#N)cc2)cc1)(C(=O)NO)S(C)(=O)=O (centres unmarked) [Example 29] | 2 µg/mL | – | – | – | – | – | – | 1 | 1 µg/mL | ≧64 mg/L | –
CNS(=O)(=O)c1ccc(-c2ccc(CCC(C)(C(=O)NO)S(C)(=O)=O)cc2)cc1 (racemic) [Example 68] | 32 µg/mL | – | – | – | – | – | – | 4 | 32 µg/mL | ≧64 mg/L | –
CC(CCc1ccc(OCCc2ccccc2)cc1)(C(=O)NO)S(C)(=O)=O (centres unmarked) [Example 271, N-hydroxy-2-methyl-2-(methylsulfonyl)-4-[4-(2-phenylethoxy)phenyl]butanamide] | ≧64 mg/L | – | – | – | ≥ 64 | 16 (≈ 40.9 µM) | 32 (≈ 81.7 µM) | – | – | – | –
CC(CCc1ccc(-c2ccc(OCCO)c(F)c2F)cc1)(C(=O)NO)S(C)(=O)=O (centres unmarked) [Example 147] | 8 µg/mL | – | – | – | – | – | – | 1 | 2 µg/mL | 32 µg/mL | –
CC(CCc1ccc(-c2cccc(O)c2F)cc1)(C(=O)NO)S(C)(=O)=O (centres unmarked) [Example 154] | – | – | – | – | – | – | – | 1 | 4 µg/mL | ≧64 mg/L | 8
Cc1cc(C)cc(COc2ccc(CCC(C)(C(=O)NO)S(C)(=O)=O)cc2)c1 (centres unmarked) [Example 257, 4-{4-[(3,5-dimethylbenzyl)oxy]phenyl}-N-hydroxy-2-methyl-2-(methylsulfonyl)butanamide] | 32 µg/mL | – | – | – | 32 (≈ 78.9 µM) | 4 (≈ 9.86 µM) | ≥ 64 | – | – | – | –
COc1cccc(F)c1-c1ccc(CCC(C)(C(=O)NO)S(C)(=O)=O)cc1 (centres unmarked) [Example 41] | ≧64 mg/L | – | – | – | – | – | – | 8 | 16 µg/mL | ≧64 mg/L | –
Cc1ccc(-c2ccc(CCC(C)(C(=O)NO)S(C)(=O)=O)cc2)o1 (centres unmarked) [Example 99] | 32 µg/mL | – | – | – | – | – | – | 8 | 16 µg/mL | ≧64 mg/L | –
CC(C)c1cccc(-c2ccc(CCC(C)(C(=O)NO)S(C)(=O)=O)cc2)c1 (centres unmarked) [Example 43] | 16 µg/mL | – | – | – | – | – | – | 8 | 4 µg/mL | 4 µg/mL | –
CC(CCc1ccc(-c2ccccc2O)cc1)(C(=O)NO)S(C)(=O)=O (centres unmarked) [Example 8, N-Hydroxy-4-(2′-hydroxybiphenyl-4-yl)-2-methyl-2-(methylsulfonyl)butanamide] | ≧64 mg/L | 8 (≈ 22 µM) | ≥ 64 | ≥ 64 | – | – | – | – | – | – | –

SMILES | KP-3700 MIC [1] | MIC [2, 5] [µg/mL] | MIC ([3]; read-out: EC-1: (MIC)) [µg/mL] | MIC [4, 6] [µg/mL] | MIC ([2]; Table 3, read-out: PA-7 MIC) [µg/mL] | MIC ([3]; read-out: EC-1 MIC) [µg/mL] | MIC ([4]; Table 3, read-out: AB-3167 MIC) [µg/mL] | PA-7 MIC [2] [µg/mL] | EC-1 MIC [3] | AB-3167 MIC [4] | KP-3700 MIC ([1]; Klebsiella pneumoniae ciprofloxacin-resistant ESBL clinical isolate KP-3700) [µg/mL]
Cc1ccc(COc2ccc(CCC(C)(C(=O)NO)S(C)(=O)=O)cc2)cc1 (centres unmarked) [Example 263, N-hydroxy-2-methyl-4-{4-[(4-methylbenzyl)oxy]phenyl}-2-(methylsulfonyl)butanamide] | 8 µg/mL | – | – | – | 4 (≈ 10.2 µM) | 2 (≈ 5.11 µM) | 16 (≈ 40.9 µM) | – | – | – | –
CC(CCc1ccc(-c2ccc(C#N)c(C#N)c2)cc1)(C(=O)NO)S(C)(=O)=O (centres unmarked) [Example 125] | 32 µg/mL | – | – | – | – | – | – | 4 | 8 µg/mL | ≧64 mg/L | –
CC(CCc1ccc(-c2ccc(CO)cc2)cc1)(C(=O)NO)S(C)(=O)=O (centres unmarked) [Example 112] | ≧64 mg/L | – | – | – | – | – | – | 4 | ≧64 mg/L | ≧64 mg/L | –
COc1ccc(-c2ccc(CCC(C)(C(=O)NO)S(C)(=O)=O)cc2)cn1 (racemic) [Example 72] | 32 µg/mL | – | – | – | – | – | – | 4 | 8 µg/mL | ≧64 mg/L | –
CS(=O)(=O)C(CCc1ccc(-c2ccc(F)cc2)cc1)C(=O)NO (centres unmarked) [Example 24, 4-(4′-Fluorobiphenyl-4-yl)-N-hydroxy-2-(methylsulfonyl)butanamide] | 32 µg/mL | 1 (≈ 2.85 µM) | 32 (≈ 91.1 µM) | 32 (≈ 91.1 µM) | – | – | – | – | – | – | –
Cc1cc(-c2ccc(CCC(C)(C(=O)NO)S(C)(=O)=O)cc2)ccc1O (centres unmarked) [Example 137] | 32 µg/mL | – | – | – | – | – | – | 4 | 16 µg/mL | ≧64 mg/L | –
COc1ccc(CCC(C)(C(=O)NO)S(C)(=O)=O)cc1 (centres unmarked) [Example 135] | ≧64 mg/L | – | – | – | – | – | – | 32 | ≧64 mg/L | ≧64 mg/L | –
CC(CCc1ccc(OCc2nc(Cc3cc(F)ccc3F)no2)cc1)(C(=O)NO)S(C)(=O)=O (centres unmarked) [Example 256, 4-(4-{[3-(2,5-difluorobenzyl)-1,2,4-oxadiazol-5-yl]methoxy}phenyl)-N-hydroxy-2-methyl-2-(methylsulfonyl)butanamide] | ≧64 mg/L | – | – | – | ≥ 64 | 32 (≈ 64.6 µM) | ≥ 64 | – | – | – | –
CC(CCc1ccc(-c2cc(F)c(OCCO)c(F)c2)cc1)(C(=O)NO)S(C)(=O)=O (centres unmarked) [Example 150] | 8 µg/mL | – | – | – | – | – | – | 2 | 2 µg/mL | 32 µg/mL | –
COc1ccc(F)c(-c2noc(COc3ccc(CCC(C)(C(=O)NO)S(C)(=O)=O)cc3)n2)c1 (centres unmarked) [Example 259, 4-(4-{[3-(2-fluoro-5-methoxyphenyl)-1,2,4-oxadiazol-5-yl]methoxy}phenyl)-N-hydroxy-2-methyl-2-(methylsulfonyl)butanamide] | ≧64 mg/L | – | – | – | ≥ 64 | 16 (≈ 32.4 µM) | ≥ 64 | – | – | – | –
Cc1ccc(C)c(-c2ccc(CCC(C)(C(=O)NO)S(C)(=O)=O)cc2)c1 (racemic) [Example 73] | ≧64 mg/L | – | – | – | – | – | – | 32 | 16 µg/mL | 4 µg/mL | –
CC(CCc1ccc(-n2cccn2)cc1)(C(=O)NO)S(C)(=O)=O (centres unmarked) [Example 11, N-Hydroxy-2-methyl-2-(methylsulfonyl)-4-[4-(1H-pyrazol-1-yl)phenyl]butanamide] | ≧64 mg/L | 16 (≈ 47.4 µM) | ≥ 64 | ≥ 64 | – | – | – | – | – | – | –
CC(C)c1ccc(-c2ccc(CCC(C)(C(=O)NO)S(C)(=O)=O)cc2)cc1 (centres unmarked) [Example 102] | 8 µg/mL | – | – | – | – | – | – | 4 | 2 µg/mL | 4 µg/mL | –
CC(CCc1ccc(OCCC2CCCC2)cc1)(C(=O)NO)S(C)(=O)=O (centres unmarked) [Example 312, 4-[4-(2-cyclopentylethoxy)phenyl]-N-hydroxy-2-methyl-2-(methylsulfonyl)butanamide] | ≧64 mg/L | – | – | – | 8 (≈ 20.9 µM) | 8 (≈ 20.9 µM) | 2 (≈ 5.21 µM) | – | – | – | –
CC(CCc1ccc(-c2ccc(F)cc2)nc1)(C(=O)NO)S(C)(=O)=O (centres unmarked) [Example 119] | ≧64 mg/L | – | – | – | – | – | – | 8 | 16 µg/mL | ≧64 mg/L | –
COc1ccc(-c2ccc(CCC(C)(C(=O)NO)S(C)(=O)=O)cc2)c(OC)c1 (racemic) [Example 65] | 2 µg/mL | – | – | – | – | – | – | 2 | 1 µg/mL | 32 µg/mL | –
